Results on 16 compounds are retold here after US9796711B2, “Substituted pyrazolo[3,4-b]pyridin-6-carboxylic acids and method of use” (AbbVie S.àr.l., priority 2015, dated 2017).

Assay [1] has as its target T1, ΔF508-CFTR (Homo sapiens, UniProt P13569, DEL508-508).
T1 construct: host or cells: CFBE41o-, doxycycline-inducible
Kind of assay: CFTR cell surface levels using HRP-tagged ΔF508-CFTR expressing CFBE cells, in the presence of a co-corrector. The class given is cell-based. The method in brief: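 Cells were seeded with 0.5 μg/mL doxycycline and held 68 h at 37 °C. Test compounds plus 3 μM co-corrector (final 0.1% DMSO) were then added for 20 h at 33 °C. Washed cells received HRP substrate, and luminescence was normalized between DMSO and 3 μM co-corrector controls.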

The target in assay [2] is T1, ΔF508-CFTR. Kind of assay: CFTR cell surface levels using HRP-tagged ΔF508-CFTR expressing CFBE cells, intrinsic corrector capacity. The class given is cell-based. The method in brief: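 Here the cells express ΔF508-CFTR with horseradish peroxidase inserted in extracellular loop 4, so only rescued channel at the surface gives luminescent signal. Compounds act on their own, 20 h at the reduced temperature of 33 °C; values are percent activity relative to DMSO and a 3 μM corrector.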

Setting [3] is: HRP-tagged ΔF508-CFTR expressing CFBE cells, in the presence of 3 μM co-corrector.
Where [4] appears, read: HRP-tagged ΔF508-CFTR expressing CFBE cells, in the presence of 3 μM co-corrector, read-out: EC50.
The mark [5] stands for this setting: HRP-tagged ΔF508-CFTR CFBE41o- cells, compounds alone (intrinsic corrector capacity), 20 hours at 33° C., positive control 3 μM corrector.
Setting [6] is: HRP-tagged ΔF508-CFTR CFBE41o- cells, compounds alone (intrinsic corrector capacity), 20 hours at 33° C., read-out: EC50.
The mark [7] stands for this setting: HRP-tagged ΔF508-CFTR expressing CFBE cells, intrinsic corrector capacity (no co-corrector), 33° C., 20 hours.
Where [8] appears, read: HRP-tagged ΔF508-CFTR expressing CFBE cells, intrinsic corrector capacity (no co-corrector), 33° C., 20 hours, read-out: EC50.

T1 sequence (P13569 with tags, fused parts or gaps DEL508-508): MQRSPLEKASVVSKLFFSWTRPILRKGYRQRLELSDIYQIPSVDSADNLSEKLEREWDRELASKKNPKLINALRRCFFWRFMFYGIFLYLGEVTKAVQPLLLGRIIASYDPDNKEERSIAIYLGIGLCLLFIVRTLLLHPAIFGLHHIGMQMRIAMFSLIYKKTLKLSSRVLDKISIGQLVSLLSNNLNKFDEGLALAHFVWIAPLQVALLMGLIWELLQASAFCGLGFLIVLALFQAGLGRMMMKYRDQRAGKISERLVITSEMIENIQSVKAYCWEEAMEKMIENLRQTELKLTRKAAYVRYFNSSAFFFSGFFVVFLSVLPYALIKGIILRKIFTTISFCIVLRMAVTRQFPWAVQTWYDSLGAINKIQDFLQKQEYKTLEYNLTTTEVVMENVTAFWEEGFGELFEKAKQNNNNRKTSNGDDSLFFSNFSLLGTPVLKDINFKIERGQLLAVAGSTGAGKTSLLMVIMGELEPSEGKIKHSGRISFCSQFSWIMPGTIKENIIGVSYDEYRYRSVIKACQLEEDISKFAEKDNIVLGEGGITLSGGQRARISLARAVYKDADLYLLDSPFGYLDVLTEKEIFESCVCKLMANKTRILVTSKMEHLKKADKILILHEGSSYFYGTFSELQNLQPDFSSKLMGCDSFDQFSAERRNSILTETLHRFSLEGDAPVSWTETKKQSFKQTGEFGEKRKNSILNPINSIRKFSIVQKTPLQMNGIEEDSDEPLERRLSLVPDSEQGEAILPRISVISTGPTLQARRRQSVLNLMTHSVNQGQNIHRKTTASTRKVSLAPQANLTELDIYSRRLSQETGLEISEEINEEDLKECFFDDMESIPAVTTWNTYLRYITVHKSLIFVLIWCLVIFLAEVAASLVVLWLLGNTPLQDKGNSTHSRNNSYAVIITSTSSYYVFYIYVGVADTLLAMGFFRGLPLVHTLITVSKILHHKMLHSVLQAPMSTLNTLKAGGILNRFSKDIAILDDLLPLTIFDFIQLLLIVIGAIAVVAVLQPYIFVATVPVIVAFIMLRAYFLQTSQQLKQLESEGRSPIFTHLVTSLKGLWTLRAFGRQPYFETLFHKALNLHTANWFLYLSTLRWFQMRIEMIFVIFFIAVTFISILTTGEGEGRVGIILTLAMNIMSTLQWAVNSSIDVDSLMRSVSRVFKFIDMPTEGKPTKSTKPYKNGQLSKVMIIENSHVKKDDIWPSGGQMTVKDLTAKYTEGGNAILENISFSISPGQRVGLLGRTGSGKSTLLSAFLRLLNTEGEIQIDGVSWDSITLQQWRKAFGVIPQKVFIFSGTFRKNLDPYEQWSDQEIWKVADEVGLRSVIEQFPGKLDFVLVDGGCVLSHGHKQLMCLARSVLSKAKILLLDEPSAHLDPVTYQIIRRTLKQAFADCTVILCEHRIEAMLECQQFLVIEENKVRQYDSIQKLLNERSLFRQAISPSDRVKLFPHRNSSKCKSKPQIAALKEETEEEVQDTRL

Take `CC(C)c1nn(C2CCCOC2)c2nc(C(=O)O)cc(-c3ccc(N4CCOCC4)cc3)c12` (stereo not shown) [compound 68, 4-[4-(morpholin-4-yl)phenyl]-1-(oxan-3-yl)-3-(propan-2-yl)-1H-pyrazolo[3,4-b]pyridine-6-carboxylic acid]: the entries for the “% Activation” value on ΔF508-CFTR [1] (setting [3]) and at ΔF508-CFTR [2] (setting [5]) were 274.9% and 106.65%, respectively. The values for the EC50 on ΔF508-CFTR [1] (setting [4]) and on ΔF508-CFTR [2] (setting [6]) were 1390 nM and 1740 nM, respectively.
For the compound `CC(C)N1CCN(c2ccc(-c3cc(C(=O)O)nc4c3c(C3CCC3)nn4C3CCCCC3)cn2)CC1` [compound 865, 3-cyclobutyl-1-cyclohexyl-4-{6-[4-(propan-2-yl)piperazin-1-yl]pyridin-3-yl}-1H-pyrazolo[3,4-b]pyridine-6-carboxylic acid], the “% Activation” value at ΔF508-CFTR [1] (setting [3]) is reported as 306.8%; at ΔF508-CFTR [2] (setting [7]), 146.9%. In addition, the EC50 turned out to be 1120 nM at ΔF508-CFTR [1] (setting [4]) and 439 nM at ΔF508-CFTR [2] (setting [8]).
Turning to `Cc1nn(-c2ccccc2)c2nc(C(=O)O)cc(-c3ccc(N4CC(O)C4)cc3)c12` [compound 124, 4-[4-(3-hydroxyazetidin-1-yl)phenyl]-3-methyl-1-phenyl-1H-pyrazolo[3,4-b]pyridine-6-carboxylic acid], the “% Activation” value at ΔF508-CFTR [1] (setting [3]) came out at 371.1%; at ΔF508-CFTR [2] (setting [5]) it was 190.5%. Besides, the half-maximal effective concentration (EC50) on ΔF508-CFTR [1] (setting [4]) is 1880 nM; at ΔF508-CFTR [2] (setting [6]), 3080 nM.
Consider `COCC1CCN(c2cc(C(=O)O)nc3c2c(C(C)C)nn3CC(C)C)CC1` [compound 548, 4-[4-(methoxymethyl)piperidin-1-yl]-1-(2-methylpropyl)-3-(propan-2-yl)-1H-pyrazolo[3,4-b]pyridine-6-carboxylic acid], for which the “% Activation” value on ΔF508-CFTR [1] (setting [3]) is 306%; at ΔF508-CFTR [2] (setting [7]), 88.93%. In addition, the EC50 stood at 3330 nM at ΔF508-CFTR [1] (setting [4]) and 2540 nM at ΔF508-CFTR [2] (setting [8]).
For `COCCOCC1(F)CCN(c2cc(C(=O)O)nc3c2c(C2CCC2)nn3-c2ccccc2)CC1` [compound 459, 3-cyclobutyl-4-{4-fluoro-4-[(2-methoxyethoxy)methyl]piperidin-1-yl}-1-phenyl-1H-pyrazolo[3,4-b]pyridine-6-carboxylic acid] the same measures were 319.8%, 152.05%, 380 nM and 653 nM.
For `COCC1CCN(c2cc(C(=O)O)nc3c2c(C(C)C)nn3CC2CCC2)CC1` [compound 547, 1-(cyclobutylmethyl)-4-[4-(methoxymethyl)piperidin-1-yl]-3-(propan-2-yl)-1H-pyrazolo[3,4-b]pyridine-6-carboxylic acid] the same measures were 318.7%, 120.7%, 1880 nM and 3330 nM.
Regarding `Cc1nn(-c2ccccc2)c2nc(C(=O)O)cc(-c3ccc(N4CCN(CCC(F)(F)F)CC4)cc3)c12` [compound 82, 3-methyl-1-phenyl-4-{4-[4-(3,3,3-trifluoropropyl)piperazin-1-yl]phenyl}-1H-pyrazolo[3,4-b]pyridine-6-carboxylic acid], the results for the “% Activation” value on ΔF508-CFTR [1] (setting [3]) and at ΔF508-CFTR [2] (setting [5]) were 335.65% and 135.95%, respectively. In addition, the concentration giving a half-maximal response (EC50) on ΔF508-CFTR [1] (setting [4]) amounted to 971 nM; on ΔF508-CFTR [2] (setting [6]), 1010 nM.
Turning to `CN1CC[C@H](Oc2cc(C(=O)O)nc3c2c(C2CCC2)nn3-c2ccccc2)C1` [compound 651, 3-cyclobutyl-4-{[(3S)-1-methylpyrrolidin-3-yl]oxy}-1-phenyl-1H-pyrazolo[3,4-b]pyridine-6-carboxylic acid], the “% Activation” value came out at 187.9% at ΔF508-CFTR [1] (setting [3]) and 54.22% at ΔF508-CFTR [2] (setting [7]). Also, the EC50 at ΔF508-CFTR [1] (setting [4]) was 2200 nM; on ΔF508-CFTR [2] (setting [8]), 3330 nM.
For `CCC1(COc2cc(C(=O)O)nc3c2c(C2CCC2)nn3-c2ccccc2)COCOC1` [compound 620, 3-cyclobutyl-4-[(5-ethyl-1,3-dioxan-5-yl)methoxy]-1-phenyl-1H-pyrazolo[3,4-b]pyridine-6-carboxylic acid], in that order: 323.25%, 147.4%, 170 nM and 250 nM.
Regarding `CC(C)c1nn(-c2cccc(N(C)C)c2)c2nc(C(=O)O)cc(-c3ccc(N4CCOCC4)nc3)c12` [compound 85, 1-[3-(dimethylamino)phenyl]-4-[6-(morpholin-4-yl)pyridin-3-yl]-3-(propan-2-yl)-1H-pyrazolo[3,4-b]pyridine-6-carboxylic acid], the “% Activation” value is 504.7% on ΔF508-CFTR [1] (setting [3]) and 314.6% on ΔF508-CFTR [2] (setting [5]). Also, the EC50 on ΔF508-CFTR [1] (setting [4]) amounted to 702 nM; at ΔF508-CFTR [2] (setting [6]), 920 nM.
As for `CC(=O)N1CC(Oc2nn(-c3ccccc3)c3nc(C(=O)O)cc(-c4ccc(N5CCOCC5)cc4)c23)C1` [compound 497, 3-[(1-acetylazetidin-3-yl)oxy]-4-[4-(morpholin-4-yl)phenyl]-1-phenyl-1H-pyrazolo[3,4-b]pyridine-6-carboxylic acid], the “% Activation” value on ΔF508-CFTR [1] (setting [3]) came to 157.55%; on ΔF508-CFTR [2] (setting [7]), 24.76%. For the same compound, the EC50 at ΔF508-CFTR [1] (setting [4]) was 3340 nM; on ΔF508-CFTR [2] (setting [8]), above 10000 nM.
With `CC(C)(COc1cc(C(=O)O)nc2c1c(C1CCC1)nn2-c1ccccc1)S(C)(=O)=O` [compound 629, 3-cyclobutyl-4-[2-(methanesulfonyl)-2-methylpropoxy]-1-phenyl-1H-pyrazolo[3,4-b]pyridine-6-carboxylic acid], the “% Activation” value at ΔF508-CFTR [1] (setting [3]) came to 252.2%; on ΔF508-CFTR [2] (setting [7]), 94.42%. Besides, the EC50 at ΔF508-CFTR [1] (setting [4]) was determined as 2160 nM; at ΔF508-CFTR [2] (setting [8]), 3330 nM.
Consider `CC(C)c1nn(C2CCCCC2)c2nc(C(=O)O)cc(C3=CC(C)(C)OC(C)(C)C3)c12` [compound 402, 1-cyclohexyl-3-(propan-2-yl)-4-(2,2,6,6-tetramethyl-3,6-dihydro-2H-pyran-4-yl)-1H-pyrazolo[3,4-b]pyridine-6-carboxylic acid], for which the “% Activation” value is given as 214.5% on ΔF508-CFTR [1] (setting [3]) and 43.815% at ΔF508-CFTR [2] (setting [7]). Also, the results for the concentration giving a half-maximal response (EC50) at ΔF508-CFTR [1] (setting [4]) and on ΔF508-CFTR [2] (setting [8]) were 1110 nM and 715 nM, respectively.
In the case of `CC1(O)CN(c2cc(C(=O)O)nc3c2c(C2CCC2)nn3-c2ccccc2)C1` [compound 536, 3-cyclobutyl-4-(3-hydroxy-3-methylazetidin-1-yl)-1-phenyl-1H-pyrazolo[3,4-b]pyridine-6-carboxylic acid], the “% Activation” value is listed as 209.35% at ΔF508-CFTR [1] (setting [3]) and 49.72% on ΔF508-CFTR [2] (setting [7]). Besides, the figures for the EC50 on ΔF508-CFTR [1] (setting [4]) and on ΔF508-CFTR [2] (setting [8]) were 2470 nM and 3330 nM, respectively.
Regarding `O=C(O)c1cc(N2CCC[C@@H](CO)C2)c2c(C3CCC3)nn(-c3ccccc3)c2n1` [compound 544, 3-cyclobutyl-4-[(3R)-3-(hydroxymethyl)piperidin-1-yl]-1-phenyl-1H-pyrazolo[3,4-b]pyridine-6-carboxylic acid], the EC50 at ΔF508-CFTR [1] worked out at 457 nM; at ΔF508-CFTR [2], 803 nM. In addition, the “% Activation” value at ΔF508-CFTR [1] (setting [3]) was found to be 273%; at ΔF508-CFTR [2] (setting [7]), 129.55%.
Regarding `COCCOC1CCN(c2cc(C(=O)O)nc3c2c(C)nn3-c2ccccc2)CC1` [compound 318, 4-[4-(2-methoxyethoxy)piperidin-1-yl]-3-methyl-1-phenyl-1H-pyrazolo[3,4-b]pyridine-6-carboxylic acid], the entries for the “% Activation” value on ΔF508-CFTR [1] (setting [3]) and on ΔF508-CFTR [2] (setting [5]) were 323.72% and 134.15%, respectively. Moreover, the EC50 is 1860 nM on ΔF508-CFTR [1] (setting [4]) and 2630 nM at ΔF508-CFTR [2] (setting [6]).

The EC50 is the concentration that produces a half-maximal response.
